Results reported in PubChem BioAssay (NCI).
Values joined by “and” are separate entries in the source; they are usually repeats but may differ in a detail not shown here. Equal entries are not always repeated.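 Dose response: 5 concentrations. Exposure: 48 h. Format: 96-well plates. Endpoint: linear interpolation; highest concentration if not reached. Abbreviation: GI50, concentration required for 50% inhibition of growth. TGI is the concentration that stops growth completely.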

What was measured:
Assay in all cases: growth of human tumour cells (NCI), 48 h
[1] = tested on: UO-31 renal
[2] = tested on: HCC-2998 colon
[3] = tested on: NCI/ADR-RES ovarian
[4] = tested on: SN12C renal
[5] = tested on: OVCAR-5 ovarian
[6] = tested on: HL-60(TB) leukemia
[7] = tested on: HT29 colon
[8] = tested on: COLO 205 colon
[9] = tested on: SK-MEL-2 melanoma
[10] = tested on: HS 578T breast

## OCC(O)C(O)C(O)C1SC(c2ccccc2)=NN1c1ccccc1 (centres undefined)
[1]
  TGI: > 100 µM
[2]
  TGI: > 100 µM
[3]
  TGI: > 100 µM
[4]
  TGI: > 100 µM
[5]
  TGI: > 100 µM
[6]
  TGI: > 100 µM
[7]
  TGI: > 100 µM
[8]
  TGI: > 100 µM
[9]
  TGI: 93.2 µM
[10]
  TGI: > 100 µM

## COC(=O)COc1ccc(/C=C2\N=C(c3ccccc3)N(c3cc(C(F)(F)F)ccc3Cl)C2=O)cc1
[1]
  GI50: 27.1 µM
  TGI: > 100 µM
[2]
  GI50: 64 µM
  TGI: > 100 µM
[3]
  GI50: 52.6 µM
  TGI: > 100 µM
[4]
  GI50: > 100 µM
  TGI: > 100 µM
[5]
  GI50: > 100 µM
  TGI: > 100 µM
[6]
  GI50: 27.3 µM
  TGI: 63.4 µM
[7]
  GI50: 97.1 µM
  TGI: > 100 µM
[8]
  GI50: 54.4 µM
  TGI: > 100 µM
[9]
  GI50: 83.5 µM
  TGI: > 100 µM
[10]
  GI50: 83.7 µM
  TGI: > 100 µM

## Cc1ccccc1CN1CC2=C(CCN(Cc3ccccc3)C2=O)N2CCN=C12
[1]
  TGI: > 100 µM
[2]
  TGI: > 70.6 µM
[3]
  TGI: > 100 µM
[4]
  TGI: > 100 µM
[5]
  TGI: > 100 µM
[6]
  TGI: > 100 µM
[7]
  TGI: > 100 µM
[8]
  TGI: > 100 µM
[9]
  TGI: > 81.6 µM
[10]
  TGI: > 100 µM

## C=C1CC[C@@]2(C#N)[C@H]3[C@H](CC[C@@H]2C)[C@@H](C)C[C@@H](CC(C)(C)C#N)[C@H]13
[1]
  GI50: 0.363 µM
  TGI: 19.3 µM
[2]
  GI50: 2.95 µM
  TGI: 20.6 µM
[3]
  GI50: 2.87 µM
  TGI: 24.6 µM
[4]
  GI50: 5.71 µM
  TGI: 64.8 µM
[6]
  GI50: 2.48 µM
  TGI: 29.5 µM
[7]
  GI50: 0.469 µM
  TGI: 16.1 µM
[8]
  GI50: 1.61 µM
  TGI: 14.4 µM
[9]
  GI50: 6.67 µM
  TGI: 40.2 µM
[10]
  GI50: 0.637 µM
  TGI: 55 µM

## COc1ccc2nc(-c3ccccc3)cc(Nc3ccc(C(C)=O)cc3)c2c1
[1]
  GI50: 6.2 µM
  TGI: > 100 µM
[2]
  GI50: 2.45 µM
  TGI: 5.27 µM
[3]
  GI50: 2.78 µM
  TGI: 7.29 µM
[4]
  GI50: 1.87 µM
  TGI: 4.66 µM
[5]
  GI50: 6.3 µM
  TGI: 19.1 µM
[7]
  GI50: 9.89 µM
  TGI: > 100 µM
[8]
  GI50: 16.4 µM
  TGI: > 100 µM
[9]
  GI50: 38.7 µM
  TGI: > 100 µM
[10]
  GI50: 8.2 µM
  TGI: 27.1 µM

## CC1(C)COCN1COC1CCCCC1
[1]
  TGI: > 100 µM
[2]
  TGI: > 100 µM
[3]
  TGI: > 100 µM
[4]
  TGI: > 100 µM
[5]
  TGI: > 100 µM
[7]
  TGI: > 100 µM
[8]
  TGI: > 100 µM
[9]
  TGI: > 100 µM
[10]
  TGI: > 100 µM

## CC(=O)C1CC2(c3ccc(C)cc3)C(c3ccc(C)cc3)=C(c3ccc(C)cc3)C1(c1ccc(C)cc1)S2=O (centres undefined)
[1]
  GI50: > 100 µM
  TGI: > 100 µM
[2]
  GI50: > 100 µM
  TGI: > 100 µM
[3]
  GI50: > 100 µM
  TGI: > 100 µM
[4]
  GI50: > 100 µM
  TGI: > 100 µM
[5]
  GI50: > 100 µM
  TGI: > 100 µM
[7]
  GI50: > 100 µM
  TGI: > 100 µM
[8]
  GI50: > 100 µM
  TGI: > 100 µM
[9]
  GI50: > 100 µM
  TGI: > 100 µM
[10]
  GI50: > 100 µM
  TGI: > 100 µM

## COc1ccc2c(c1)nc(N)c1c3cc(OC)c(OC)cc3cn21
[1]
  GI50: 2.51 µM
  TGI: 20.5 µM
[2]
  GI50: 0.0434 µM
  TGI: 16.5 µM
[4]
  GI50: 0.147 µM
  TGI: 17.5 µM
[5]
  GI50: 0.0749 µM
  TGI: 18.8 µM
[6]
  GI50: 0.196 µM
  TGI: 0.622 µM
[7]
  TGI: 11.2 µM
[8]
  TGI: 0.521 µM
[9]
  GI50: 2.13 µM
  TGI: 24.1 µM
[10]
  GI50: 0.159 µM
  TGI: 32.3 µM

## CC(=O)Nc1nc(SCc2ccccc2)c2ncn(C(C)=O)c2n1
[1]
  GI50: 43.5 µM
  TGI: > 100 µM
[2]
  GI50: > 100 µM
  TGI: > 100 µM
[3]
  GI50: 99.3 µM
  TGI: > 100 µM
[4]
  GI50: > 100 µM
  TGI: > 100 µM
[5]
  GI50: > 100 µM
  TGI: > 100 µM
[6]
  GI50: 63 µM
  TGI: > 100 µM
[7]
  GI50: 63.4 µM
  TGI: > 100 µM
[8]
  GI50: > 100 µM
  TGI: > 100 µM
[10]
  GI50: 47.3 µM
  TGI: > 100 µM

## C=C1C(=O)O[C@@H]2C1C[C@@H](O)/C(C)=C/C/C=C(\C)CCC[C@H](C)[C@H]2OC(C)=O (some centres undefined)
[1]
  GI50: 15.6 µM
  TGI: 39.4 µM
[2]
  GI50: 31.7 µM
  TGI: > 100 µM
[3]
  GI50: 32.3 µM
  TGI: > 100 µM
[4]
  GI50: 27.2 µM
  TGI: 66.3 µM
[5]
  GI50: 56.3 µM
  TGI: > 100 µM
[7]
  GI50: 40 µM
  TGI: > 100 µM
[8]
  GI50: 40.4 µM
  TGI: > 100 µM
[9]
  GI50: 18.2 µM
  TGI: 67.9 µM
[10]
  GI50: 29.1 µM
  TGI: 76 µM

## N#CC1=C(N)NC(=S)NC12Nc1ccccc1O2 (centres undefined)
[1]
  GI50: 25.4 µM
  TGI: > 100 µM
[3]
  GI50: 20.5 µM
  TGI: 69.6 µM
[4]
  GI50: 25.2 µM
  TGI: 90 µM
[5]
  GI50: 40.7 µM
  TGI: > 100 µM
[6]
  GI50: 17.2 µM
  TGI: > 100 µM
[7]
  GI50: 31.2 µM
  TGI: 90.8 µM
[8]
  GI50: 28.1 µM
  TGI: > 100 µM
[9]
  GI50: 20.9 µM
  TGI: 53.4 µM
[10]
  GI50: 19.1 µM
  TGI: 60.2 µM

## COc1ccc(/C=C\c2cc(OC)c(OC)c(OC)c2)cc1OC(=O)C(N)CCC(=O)O (centres undefined)
[1]
  GI50: 0.000436 µM and < 0.0001 µM
[3]
  GI50: 0.000317 µM
  TGI: 0.608 µM
[4]
  TGI: > 100 µM
[5]
  TGI: > 100 µM
[6]
  GI50: 0.00017 µM
  TGI: 0.000422 µM and 0.00275 µM
[7]
  TGI: > 37.9 µM and 46.2 µM
[9]
  GI50: 7.35e-05 µM
  TGI: > 100 µM
[10]
  GI50: 0.000788 µM and 0.00046 µM

## O=C1CCCCCCCC/C=C/CCC(c2ccco2)O1 (centres undefined)
[2]
  GI50: > 100 µM
  TGI: > 100 µM
[3]
  GI50: > 100 µM
  TGI: > 100 µM
[4]
  GI50: 31.7 µM
  TGI: > 100 µM
[5]
  GI50: > 100 µM
  TGI: > 100 µM
[6]
  GI50: 14.5 µM
  TGI: 38.7 µM
[7]
  GI50: 44.1 µM
  TGI: > 100 µM
[8]
  GI50: 68 µM
  TGI: > 100 µM
[9]
  GI50: > 100 µM
  TGI: > 100 µM
[10]
  GI50: 16.2 µM
  TGI: 77.9 µM

## CC1(C)OC[C@@H]([C@@]2(CO[Si](C)(C)C(C)(C)C)CC=CC(=O)O2)O1
[1]
  GI50: 19.2 µM
  TGI: 42.2 µM
[2]
  GI50: 18.6 µM
  TGI: 34.1 µM
[3]
  GI50: 21.7 µM
  TGI: 49.2 µM
[4]
  GI50: 19.5 µM
  TGI: 47.6 µM
[5]
  GI50: 28.6 µM
  TGI: 69.3 µM
[7]
  GI50: 34.5 µM
  TGI: > 100 µM
[8]
  GI50: 33.5 µM
  TGI: > 100 µM
[9]
  GI50: 40.4 µM
  TGI: > 100 µM
[10]
  GI50: 30.4 µM
  TGI: 89.4 µM

## Cc1cccc(C)c1NC(=O)/C(Cl)=C(/Cl)C(=O)O
[1]
  TGI: 21.7 µM
[2]
  TGI: 32.2 µM
[4]
  TGI: 33.7 µM
[5]
  TGI: 40.6 µM
[6]
  TGI: > 100 µM
[7]
  TGI: 39.3 µM
[8]
  TGI: 11.4 µM
[9]
  TGI: 31.5 µM
[10]
  TGI: 83.2 µM
